Measured values as given in publication PMC8877291, “Design and Synthesis of Arylpiperazine Serotonergic/Dopaminergic Ligands with Neuroprotective Properties” (Molecules, 2022).

What was measured:
dopamine D1 receptor = target: T1, dopamine D1 receptor (Homo sapiens, UniProt P21728); assay: Dopamine D1 receptor competition binding ([3H]-SCH23390); settings: HEK-293 membranes, [3H]-SCH23390 0.3 nM, mean (CI 95%), read-out: Affinity Ki D1
T1 construct: expressed in transfected cells
Experimental: (§1) The final compounds were tested for their affinity at serotonin 5-HT1A, 5-HT2A, and 5-HT7 receptors and at dopamine D1, D2, D3, and D5 receptors. As a first step, competition radioligand binding assays were carried out for all the compounds at the single concentration of 10 µM, on membrane preparations from stable cell lines heterologously expressing the human cloned 5-HT1A, 5-HT2A, or 5-HT7 receptors. […] For the affinity determination at dopamine receptor subtypes, membrane fractions of human dopamine D2s, D3, D1, and D5 receptor-expressing cells were used. They were co-incubated with [^3H]spiperone (for D2s and D3 receptor) or [^3H]SCH23390 (for D1 and D5 receptor) and appropriate concentrations of test compound for 120 min. Bound radioligand was separated from the free ligand using filtration. Radioactivity was measured by liquid scintillation counting.
(§2) The affinity for dopamine D1 and D5 receptors was evaluated in membrane fractions of HEK-293 cells stably expressing the human dopamine D1 or D5 receptor. HEK-293-D1 cells were cultured in DMEM/F12 (15 mM HEPES, 1.2 g/L NaHCO3) with 10% (v/v) FBS and 1% (v/v) L-glutamine. HEK-293-D5 cells were cultured in DMEM/F12 (with L-glutamine, 1.2 g/L NaHCO3) with 20% (v/v) FBS. Preparation of membrane fractions and radioligand competition assays were performed as previously described. Briefly, membrane fractions were co-incubated with [^3H]-SCH23390 (0.3 nM) and different concentrations of test compound for 120 min at room temperature. Fluphenazine (100 µM) was used to determine non-specific binding and as reference compound.
(§3) Data of at least three independent experiments in triplicate were analyzed using GraphPad Prism 8.1 (San Diego, CA, USA). Binding curves were fitted to a non-linear regression model (one-site competition). Ki values were calculated from IC50 values using the Cheng–Prusoff equation. The statistical calculations were performed on –log(Ki).

dopamine D5 receptor = target: T2, dopamine D5 receptor (Homo sapiens, UniProt P21918); assay: Dopamine D5 receptor competition binding ([3H]-SCH23390); settings: HEK-293 membranes, [3H]-SCH23390 0.3 nM, mean (CI 95%), read-out: Affinity Ki D5
T2 construct: expressed in transfected cells
T2 sequence (P21918 whole entry): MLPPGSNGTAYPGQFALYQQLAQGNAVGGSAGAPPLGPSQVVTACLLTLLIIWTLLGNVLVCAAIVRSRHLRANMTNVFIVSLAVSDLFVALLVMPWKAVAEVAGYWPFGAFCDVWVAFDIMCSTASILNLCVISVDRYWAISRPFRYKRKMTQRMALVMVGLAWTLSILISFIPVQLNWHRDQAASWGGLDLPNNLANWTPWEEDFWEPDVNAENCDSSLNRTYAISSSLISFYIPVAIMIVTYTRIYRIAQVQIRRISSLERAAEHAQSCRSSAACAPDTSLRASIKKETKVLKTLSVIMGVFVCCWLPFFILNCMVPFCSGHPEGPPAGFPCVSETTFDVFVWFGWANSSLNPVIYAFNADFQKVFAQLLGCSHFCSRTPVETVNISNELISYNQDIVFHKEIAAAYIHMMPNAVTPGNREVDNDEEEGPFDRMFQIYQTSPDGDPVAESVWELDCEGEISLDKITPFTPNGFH
Experimental: as §1, §2, §3

[1] = Stability assay in rat liver microsomes; assay type: in vitro ADME; settings: pH 7.4; rat liver microsomes, 30 min incubation, NADPH-regenerating system, 10 μM; read-out: Metabolic Stability (percentage of recovery of the parent compound)
Experimental: To evaluate the susceptibility to first-pass oxidative metabolism, the leading cause of metabolic degradation in vivo [17] the target compounds were incubated with rat liver microsomes. The turnover of the parent compound was assessed as the percentage of the parent compound recovered after 30 min of incubation with microsomes in the presence of an NADPH-regenerating system.
Test compounds were pre-incubated at 37 °C with rat liver microsomes (Tebu-Bio, Milan, Italy) (1.0 mg/mL microsomal protein) at 10 μM final concentration in 100 mM potassium phosphate buffer (pH 7.4) for 10 min. Metabolic reactions were initiated by the addition of the NADPH regenerating system (containing 10 mM NADP, 50 mM glucose-6-phosphate, and 10 unit/mL glucose-6-phosphate dehydrogenase, final glucose-6-phosphate dehydrogenase concentration, 1 unit/mL). After 30 min incubation, the reaction mixture was quenched by adding an equal volume of cold acetonitrile containing the internal standard. A test compound incubated with microsomes without NADPH regenerating system was included. Quenched samples were centrifuged at 4500 rpm for 15 min and the supernatants were injected for quantification analysis. Samples (100 μL) were analyzed by using an Agilent 1260 Infinity Binary LC System equipped with a diode array detector (Open Lab software was used to analyze the chromatographic data) and a Phenomenex Gemini C-18 column (250 mm × 4.6 mm, 5 μm particle size). The samples were eluted using CH3CN/20 mM ammonium formate pH 5.5 (7:3, v/v) as eluent (volumetric flow rate =1 mL/min). Concentrations were quantified by measuring the area under the peak.
The percentage of the parent compound remaining after a 30-min incubation was calculated according to the equation:% of parent compound remaining after 30 min = Cparent/Ccontrol × 100(1) where Cparent is ligand concentration after incubation with microsome fraction and NADPH regenerating system and Ccontrol is ligand concentration after incubation with microsome fraction only.

dopamine D2s receptor = dopamine D2s receptor (Homo sapiens, UniProt P14416); assay: Dopamine D2s receptor competition binding ([3H]spiperone)
Chain of dopamine D2s receptor (P14416 1-414 isoform P14416-2): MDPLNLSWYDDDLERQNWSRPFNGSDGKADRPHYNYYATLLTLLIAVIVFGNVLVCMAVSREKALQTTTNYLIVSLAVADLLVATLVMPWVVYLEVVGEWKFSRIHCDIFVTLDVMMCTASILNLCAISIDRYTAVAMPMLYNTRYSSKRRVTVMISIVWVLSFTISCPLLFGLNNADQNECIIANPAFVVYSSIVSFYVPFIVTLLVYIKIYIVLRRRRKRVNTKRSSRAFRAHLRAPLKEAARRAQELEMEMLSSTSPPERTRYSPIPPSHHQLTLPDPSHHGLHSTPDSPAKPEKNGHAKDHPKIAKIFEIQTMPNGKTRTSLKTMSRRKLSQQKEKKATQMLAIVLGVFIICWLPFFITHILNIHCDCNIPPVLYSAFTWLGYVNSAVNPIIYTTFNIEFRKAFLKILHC
Experimental: (§4) Competition binding experiments at dopamine D2s and D3 receptor were performed to determine the affinity of the compounds. […] Membrane preparations of transfected CHO-K1 cells stably expressing the human D2s or D3 receptor were performed according to Bautista-Aguilera et al. [26]. The competition binding experiments were conducted as previously reported [26, 27]. Briefly, membrane fractions (D2sR: 25 µg/200 µL; D3R: 20 µg/200 µL) were incubated with [^3H]spiperone (0.2 nM) and test compound for 120 min at room temperature. […] Non-specific binding was determined in the presence of 10 µM haloperidol. Haloperidol was also used as reference compound. Separation of the bound ligand from the free ligand was conducted by filtration through GF/B filters using deionized water.

[2] = target: T3, serotonin 5-HT2A receptor (Homo sapiens, UniProt P28223); assay: 5-HT2A receptor radioligand competition binding ([3H]-ketanserin); settings: human cloned receptor, CHO-K1 membranes, 1 nM [3H]-ketanserin; ± S.E.M., n = 3 in duplicate; read-out: Affinity Ki 5-HT2A
T3 construct: expressed in transfected cells
T3 sequence (P28223 whole entry): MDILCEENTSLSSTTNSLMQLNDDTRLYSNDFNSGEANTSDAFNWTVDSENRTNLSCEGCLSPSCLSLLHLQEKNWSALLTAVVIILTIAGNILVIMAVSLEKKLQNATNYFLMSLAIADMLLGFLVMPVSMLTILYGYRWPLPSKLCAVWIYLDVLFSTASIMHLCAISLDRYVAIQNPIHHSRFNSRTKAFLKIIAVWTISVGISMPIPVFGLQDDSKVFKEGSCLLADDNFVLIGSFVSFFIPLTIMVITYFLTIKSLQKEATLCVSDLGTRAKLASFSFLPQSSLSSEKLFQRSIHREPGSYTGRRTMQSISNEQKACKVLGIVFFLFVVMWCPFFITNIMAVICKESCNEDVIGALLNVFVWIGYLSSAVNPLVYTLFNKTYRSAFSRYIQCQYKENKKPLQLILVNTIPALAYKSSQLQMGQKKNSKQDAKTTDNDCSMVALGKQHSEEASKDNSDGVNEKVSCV

[3] = target: T4, serotonin 5-HT1A receptor (Homo sapiens, UniProt P08908); assay: 5-HT1A receptor radioligand competition binding ([3H]-8-Hydroxy-DPAT); settings: human cloned receptor, HEK293 membranes, 1 nM [3H]-8-Hydroxy-DPAT; ± S.E.M., n = 3 in duplicate; read-out: Affinity Ki 5-HT1A
T4 construct: expressed in transfected cells
T4 sequence (P08908 1-422): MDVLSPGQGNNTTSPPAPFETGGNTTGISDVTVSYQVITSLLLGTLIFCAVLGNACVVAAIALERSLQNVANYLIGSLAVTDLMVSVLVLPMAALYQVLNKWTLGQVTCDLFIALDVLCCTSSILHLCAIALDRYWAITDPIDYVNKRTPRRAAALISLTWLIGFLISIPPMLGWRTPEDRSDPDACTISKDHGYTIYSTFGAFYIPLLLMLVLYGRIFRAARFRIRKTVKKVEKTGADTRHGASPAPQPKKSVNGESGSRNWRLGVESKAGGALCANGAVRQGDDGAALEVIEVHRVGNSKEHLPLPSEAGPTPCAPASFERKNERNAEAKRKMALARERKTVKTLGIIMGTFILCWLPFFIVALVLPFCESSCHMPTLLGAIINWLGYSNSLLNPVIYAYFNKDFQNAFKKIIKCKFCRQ
Experimental: as §1, with “As” for “The final compounds were tested for their affinity at serotonin 5-HT1A, 5-HT2A, and 5-HT7 receptors and at dopamine D1, D2, D3, and D5 receptors. As”
The affinity of the compounds for serotonin 5-HT1A receptor was evaluated in membrane preparations from HEK293 cells stably expressing the human cloned receptor, following previously described procedures with minor modifications. Competition binding experiments were performed using 1 nM [^3H]-8-Hydroxy-DPAT (1 mCi/mL, PerkinElmer NET929250UC) as radioligand. Nonspecific binding was assessed in the presence of 10 µM serotonin. […] Assays were carried out in duplicate in 96-well assay plates, in assay buffer (50 mM Tris-HCl, 5 mM MgSO4, pH = 7.4). Assay mixtures were incubated at 37 °C for 120 min, followed by filtration through GF/C glass filter plates, and washed with ice-cold wash buffer (50 mM Tris-HCl, pH = 7.4).

dopamine D3 receptor = dopamine D3 receptor (Homo sapiens, UniProt P35462); assay: Dopamine D3 receptor competition binding ([3H]spiperone)
Chain of dopamine D3 receptor (P35462 whole entry): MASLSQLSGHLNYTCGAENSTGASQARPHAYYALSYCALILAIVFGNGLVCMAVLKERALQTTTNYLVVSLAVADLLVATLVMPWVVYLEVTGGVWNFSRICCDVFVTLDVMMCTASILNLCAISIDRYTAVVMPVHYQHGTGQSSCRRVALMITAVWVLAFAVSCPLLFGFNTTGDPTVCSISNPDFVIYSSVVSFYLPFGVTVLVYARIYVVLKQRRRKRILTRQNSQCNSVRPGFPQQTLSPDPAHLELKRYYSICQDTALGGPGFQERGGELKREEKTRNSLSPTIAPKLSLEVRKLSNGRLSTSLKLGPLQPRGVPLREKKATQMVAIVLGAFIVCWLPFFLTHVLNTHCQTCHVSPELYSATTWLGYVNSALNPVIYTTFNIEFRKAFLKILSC
Experimental: as §4

[4] = target: T5, serotonin 5-HT7 receptor (5-HT7A) (Homo sapiens, UniProt P34969); assay: 5-HT7 receptor radioligand competition binding ([3H]-SB269970); settings: human cloned 5-HT7A receptor, HEK293 membranes, 2 nM [3H]-SB269970; ± S.E.M., n = 3 in duplicate; read-out: Affinity Ki 5-HT7
T5 construct: expressed in transfected cells
T5 sequence (P34969 1-445 isoform P34969-2): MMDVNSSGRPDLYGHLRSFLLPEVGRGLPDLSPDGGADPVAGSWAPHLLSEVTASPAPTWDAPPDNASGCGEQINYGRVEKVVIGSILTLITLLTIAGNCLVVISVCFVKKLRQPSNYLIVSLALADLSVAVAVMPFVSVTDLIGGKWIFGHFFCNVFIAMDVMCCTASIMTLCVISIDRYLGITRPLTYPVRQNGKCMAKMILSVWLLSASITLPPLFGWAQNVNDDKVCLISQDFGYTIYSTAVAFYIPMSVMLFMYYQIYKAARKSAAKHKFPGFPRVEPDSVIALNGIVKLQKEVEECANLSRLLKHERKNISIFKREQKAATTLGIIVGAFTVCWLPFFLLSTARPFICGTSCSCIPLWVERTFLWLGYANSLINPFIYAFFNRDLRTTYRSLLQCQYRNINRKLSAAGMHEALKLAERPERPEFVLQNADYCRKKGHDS
Experimental: as §1, with “As” for “The final compounds were tested for their affinity at serotonin 5-HT1A, 5-HT2A, and 5-HT7 receptors and at dopamine D1, D2, D3, and D5 receptors. As”
The affinity of the compounds for serotonin 5-HT7 receptor was evaluated in membrane preparations from HEK293 cells stably expressing the human cloned 5-HT7A receptor, following previously described procedures with minor modifications. Competition binding experiments were performed using 2 nM [^3H]-SB269970 (34.5 Ci/mmol, 0.25 mCi/mL, Perkin Elmer NET1198U250UC) as radioligand. […] Methiothepine was included in the assays as reference compound. Assays were carried out in duplicate in 96-well assay plates, in assay buffer (50 mM Tris-HCl, 4 mM MgCl2, 1 mM ascorbic acid, 0.1 mM pargyline, pH = 7.4). Assay mixtures were incubated at 37 °C for 60 min, followed by filtration through GF/C glass filter plates, and washing with ice-cold assay buffer. Affinity (equilibrium dissociation constant, Ki) of the compounds was calculated from competition binding curves as indicated above.

T1 sequence (P21728 whole entry): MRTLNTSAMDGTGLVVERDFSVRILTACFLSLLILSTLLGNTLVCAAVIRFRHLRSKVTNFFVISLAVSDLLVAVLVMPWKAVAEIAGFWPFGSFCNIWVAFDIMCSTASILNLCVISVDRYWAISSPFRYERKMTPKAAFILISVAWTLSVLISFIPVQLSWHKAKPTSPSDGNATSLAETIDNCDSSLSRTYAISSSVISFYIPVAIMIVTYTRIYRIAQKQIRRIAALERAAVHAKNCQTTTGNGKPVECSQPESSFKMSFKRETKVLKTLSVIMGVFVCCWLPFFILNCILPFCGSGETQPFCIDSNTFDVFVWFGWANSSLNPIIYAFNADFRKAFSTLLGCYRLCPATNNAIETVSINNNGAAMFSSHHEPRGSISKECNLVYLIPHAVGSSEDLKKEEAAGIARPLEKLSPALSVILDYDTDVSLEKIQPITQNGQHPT

Ki (dopamine D1 receptor): 193 nM
Ki (dopamine D5 receptor): 413 nM
remaining at 30 min, 10 μM [1]: < 3%
Ki (dopamine D2s receptor): > 10000 nM
Ki [2]: 49.1 ± 12 nM
Ki [3]: 653 ± 95 nM
Ki (dopamine D3 receptor): > 10000 nM
Ki [4]: 60.8 ± 7.1 nM
Compound: COc1ccc(-c2cc(F)ccc2N2CCN(CCCn3ncc(=O)n(C)c3=O)CC2)cc1 [Compound 9a, 2-(3-(4-(5-Fluoro-4’-methoxy-[1,1’-biphenyl]-2-yl)piperazin-1-yl)propyl)-4-methyl-1,2,4-triazine-3,5(2H,4H)-dione]
